The source of these data is patent US20220402916A1, “SMALL MOLECULE INHIBITORS OF KRAS G12C MUTANT” (Merck Sharp & Dohme Corp., priority 2019, published 2022).

One assay deals with T1, Biotinylated KRAS G12C protein (Homo sapiens, UniProt P01116, C118S/C51S/C80L/G12C).
T1 construct: 183 amino acids; biotin on K10
T1 sequence (P01116 with tags, fused parts or gaps isoform P01116-2 G12C/C51S/C80L/C118S): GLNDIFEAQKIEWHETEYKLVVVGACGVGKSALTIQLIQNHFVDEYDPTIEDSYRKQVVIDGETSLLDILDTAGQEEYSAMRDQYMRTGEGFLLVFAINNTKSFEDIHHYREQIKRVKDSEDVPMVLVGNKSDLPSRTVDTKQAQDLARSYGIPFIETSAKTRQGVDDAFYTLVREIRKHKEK
In words: SOS-catalyzed nucleotide exchange assay. It is filed as biochemical. The following applies: 10,000 nM; 60 minutes of preincubation prior to addition of SOS. Here is the method: Compounds are added to this complex, and then after 60 minute incubation time the mixture is treated with recombinant SOS protein and unlabeled GTP. Small molecule inhibitors stabilize the Bodipy-GDP complex whereas the untreated protein rapidly exchanges Bodipy-GDP for unlabeled GTP resulting in reduced TR-FRET signal. […] This mixture is then further diluted to 90 nM in an assay buffer (20 mM HEPES, 150 mM sodium chloride, 10 mM magnesium chloride, and 0.005% Tween) containing 15 nM of Terbium-Streptavidin (Invitrogen, catalog #PV3577) and 900 nM of Bodipy-GDP and incubated at room temperature for six hours. […] Each test compound (10 mM stock in DMSO) is diluted in DMSO to make a 10-point, 3-fold dilution series in a 384-well low dead volume microplate (Labcyte, catalog #LP-0200). Once titrations are made, 10 nL of the diluted compounds is acoustically dispensed into a 384-well assay plate (Corning, catalog #3820) using an Echo 550 (Labcyte). […] Each well then receives 3 μL of 240 nM recombinant human SOS protein and 9 mM GTP (Sigma, G8877) in assay buffer and is incubated at room temperature for 60 minutes. The time-resolved fluorescence resonance energy transfer signal for the assay plate is measured on an Envision (PerkinElmer) plate reader: Excitation filter=340 nm; emission1=495 nm; emission2=520 nm; dichroic mirror=D400/D505; delay time=100 μs. The signal of each well is determined as the ratio of the emission at 520 nm to that at 495 nm. […] The apparent effect as a function of compound concentration is fit to a four parameter logistic equation.
By inhibition is commonly meant the share of the control response that was lost under treatment. On to `C=CC(=O)N1CCN(c2cc(C(=O)N(C)C3CCN(C)C3)nc3c2CCN(c2cccc4cccc(C)c24)C3)CC1` (racemic) [Compound 51, rac-4-(4-acryloylpiperazin-1-yl)-N-methyl-7-(8-methylnaphthalen-1-yl)-N-(1-methylpyrrolidin-3-yl)-5,6,7,8-tetrahydro-1,7-naphthyridine-2-carboxamide], for which the inhibition at 10 µM came to 36%.

In the case of `C=CC(=O)N1CCN(c2cc(C(=O)NCC3CN(C)CCO3)nc3c2CCN(c2cccc4cccc(C)c24)C3)CC1` (racemic) [Compound 55, rac-4-(4-acryloylpiperazin-1-yl)-N-((4-methylmorpholin-2-yl)methyl)-7-(8-methylnaphthalen-1-yl)-5,6,7,8-tetrahydro-1,7-naphthyridine-2-carboxamide], the inhibition at 10 µM amounted to 31%.

Regarding `C=CC(=O)N1CCN(c2cc(C(=O)N[C@H]3COC[C@@H]3N3CCOCC3)nc3c2CCN(c2cccc4cccc(C)c24)C3)CC1` (racemic) [Compound 35, rac-4-(4-acryloylpiperazin-1-yl)-7-(8-methylnaphthalen-1-yl)-N-(trans-4-morpholinotetrahydrofuran-3-yl)-5,6,7,8-tetrahydro-1,7-naphthyridine-2-carboxamide], the inhibition at 10 µM worked out at 39%.

Staying with this assay, now noted: apparent potency; preincubation time of 60 minutes prior to addition of SOS.
By IC50 is commonly meant the concentration that inhibits the measured activity by half. Take `C=CC(=O)N1CCN(c2cc(C(=O)NC3CCCC(N(C)C)C3)nc3c2CCN(c2cccc4cccc(C)c24)C3)CC1` (racemic) [Compound 40, rac-(cis,trans)-4-(4-acryloylpiperazin-1-yl)-N-(3-(dimethylamino)cyclohexyl)-7-(8-methylnaphthalen-1-yl)-5,6,7,8-tetrahydro-1,7-naphthyridine-2-carboxamide]: the IC50 is 3540 nM.

As to `C=CC(=O)N1CCN(c2cc(C(=O)NC(CN(C)C)C(C)C)nc3c2CCN(c2cccc4cccc(C)c24)C3)CC1` (racemic) [Compound 18, rac-4-(4-acryloylpiperazin-1-yl)-N-(1-(dimethylamino)-3-methylbutan-2-yl)-7-(8-methylnaphthalen-1-yl)-5,6,7,8-tetrahydro-1,7-naphthyridine-2-carboxamide], the IC50 turned out to be 145 nM.

With `C=CC(=O)N1CCN(c2cc(C(=O)NC(C)CN(C)C)nc3c2CCN(c2cccc4ccccc24)C3)CC1` (racemic) [Compound 6, rac-4-(4-acryloylpiperazin-1-yl)-N-(1-(dimethylamino)propan-2-yl)-7-(naphthalen-1-yl)-5,6,7,8-tetrahydro-1,7-naphthyridine-2-carboxamide], the IC50 was 1690 nM.

`C=CC(=O)N1CCN(c2cc(C(=O)N[C@@H](C)CN(C)C)nc3c2CCN(c2cccc4cccc(C)c24)C3)CC1` [Compound 14, (S)-4-(4-acryloylpiperazin-1-yl)-N-(1-(dimethylamino)propan-2-yl)-7-(8-methylnaphthalen-1-yl)-5,6,7,8-tetrahydro-1,7-naphthyridine-2-carboxamide]: the IC50 came out at 614 nM.

Turning to `C=CC(=O)N1CCN(c2cc(C(=O)NC3(CN(CC)CC)CC3)nc3c2CCN(c2cccc4cccc(C)c24)C3)CC1` [Compound 26, 4-(4-acryloylpiperazin-1-yl)-N-(1-((diethylamino)methyl)cyclopropyl)-7-(8-methylnaphthalen-1-yl)-5,6,7,8-tetrahydro-1,7-naphthyridine-2-carboxamide], the IC50 amounted to 187 nM.

In the case of `C=CC(=O)N1CCN(c2cc(C(=O)N[C@H]3CC[C@@H]3N)nc3c2CCN(c2cccc4cccc(C)c24)C3)CC1` (racemic) [Compound 37, rac-4-(4-acryloylpiperazin-1-yl)-N-(trans-2-aminocyclobutyl)-7-(8-methylnaphthalen-1-yl)-5,6,7,8-tetrahydro-1,7-naphthyridine-2-carboxamide], the IC50 worked out at 468 nM.

For `C=CC(=O)N1CCN(c2cc(C(=O)NC3CCN(C)CC3)nc3c2CCN(c2cccc4cccc(C)c24)C3)CC1` [Compound 54, 4-(4-acryloylpiperazin-1-yl)-7-(8-methylnaphthalen-1-yl)-N-(1-methylpiperidin-4-yl)-5,6,7,8-tetrahydro-1,7-naphthyridine-2-carboxamide], the IC50 is 9150 nM.

On to `C=CC(=O)N1CCN(c2cc(C(=O)N[C@H](C)CN3CCOCC3)nc3c2CCN(c2cccc4cccc(C)c24)C3)CC1` [Compound 24, (R)-4-(4-acryloylpiperazin-1-yl)-7-(8-methylnaphthalen-1-yl)-N-(1-morpholinopropan-2-yl)-5,6,7,8-tetrahydro-1,7-naphthyridine-2-carboxamide], for which the IC50 is 1490 nM.

For `C=CC(=O)N1CCN(c2cc(C(=O)N[C@H]3COC[C@@H]3N)nc3c2CCN(c2cccc4cccc(C)c24)C3)CC1` (racemic) [Compound 36, rac-4-(4-acryloylpiperazin-1-yl)-N-(trans-4-aminotetrahydrofuran-3-yl)-7-(8-methylnaphthalen-1-yl)-5,6,7,8-tetrahydro-1,7-naphthyridine-2-carboxamide], the IC50 stood at 1520 nM.

Consider `C=CC(=O)N1CCN(c2cc(C(=O)N[C@@H]3C[C@@H]3N)nc3c2CCN(c2cccc4cccc(C)c24)C3)CC1` (racemic) [Compound 38, rac-4-(4-acryloylpiperazin-1-yl)-N-(cis-2-aminocyclopropyl)-7-(8-methylnaphthalen-1-yl)-5,6,7,8-tetrahydro-1,7-naphthyridine-2-carboxamide], for which the IC50 was 4770 nM.

For the compound `C=CC(=O)N1CCN(c2cc(C(=O)NC3CCCCN(C)C3)nc3c2CCN(c2cccc4cccc(C)c24)C3)CC1` (racemic) [Compound 53, rac-4-(4-acryloylpiperazin-1-yl)-N-(1-methylazepan-3-yl)-7-(8-methylnaphthalen-1-yl)-5,6,7,8-tetrahydro-1,7-naphthyridine-2-carboxamide], the IC50 was found to be 5360 nM.

As to `C=CC(=O)N1CCN(c2cc(C(=O)NCC(C)N(C)C)nc3c2CCN(c2cccc4ccccc24)C3)CC1` (racemic) [Compound 5, rac-4-(4-acryloylpiperazin-1-yl)-N-(2-(dimethylamino)propyl)-7-(naphthalen-1-yl)-5,6,7,8-tetrahydro-1,7-naphthyridine-2-carboxamide], the IC50 was determined as 6020 nM.

As for `C=CC(=O)N1CCN(c2cc(C(=O)NC(C)CCN(C)C)nc3c2CCN(c2cccc4cccc(C)c24)C3)CC1` (racemic) [Compound 21, rac-4-(4-acryloylpiperazin-1-yl)-N-(4-(dimethylamino)butan-2-yl)-7-(8-methylnaphthalen-1-yl)-5,6,7,8-tetrahydro-1,7-naphthyridine-2-carboxamide], the IC50 is 3180 nM.

As to `C=CC(=O)N1CCN(c2cc(C(=O)N3CCC[C@@H]3CN3CCCC3)nc3c2CCN(c2cccc4cccc(C)c24)C3)CC1` [Compound 42, (R)-1-(4-(7-(8-methylnaphthalen-1-yl)-2-(2-(pyrrolidin-1-ylmethyl)pyrrolidine-1-carbonyl)-5,6,7,8-tetrahydro-1,7-naphthyridin-4-yl)piperazin-1-yl)prop-2-en-1-one], the IC50 stood at 3770 nM.

Consider `C=CC(=O)N1CCN(c2cc(C(=O)NC3CN(C)C3)nc3c2CCN(c2cccc4cccc(C)c24)C3)CC1` [Compound 48, 4-(4-acryloylpiperazin-1-yl)-N-(1-methylazetidin-3-yl)-7-(8-methylnaphthalen-1-yl)-5,6,7,8-tetrahydro-1,7-naphthyridine-2-carboxamide], for which the IC50 turned out to be 7290 nM.

As for `C=CC(=O)N1CCN(c2cc(C(=O)NCCC3CCCN3C)nc3c2CCN(c2cccc4cccc(C)c24)C3)CC1` (racemic) [Compound 57, rac-4-(4-acryloylpiperazin-1-yl)-7-(8-methylnaphthalen-1-yl)-N-(2-(1-methylpyrrolidin-2-yl)ethyl)-5,6,7,8-tetrahydro-1,7-naphthyridine-2-carboxamide], the IC50 came out at 3410 nM.

Take `C=CC(=O)N1CCN(c2cc(C(=O)NCCN(C)C)nc3c2CCN(c2cccc4cccc(C)c24)C3)CC1` [Compound 13, 4-(4-acryloylpiperazin-1-yl)-N-(2-(dimethylamino)ethyl)-7-(8-methylnaphthalen-1-yl)-5,6,7,8-tetrahydro-1,7-naphthyridine-2-carboxamide]: the 50% inhibitory concentration (IC50) is 826 nM.

With `C=CC(=O)N1CCN(c2cc(C(=O)N3CCC[C@H]3CN3CCCC3)nc3c2CCN(c2cccc4cccc(C)c24)C3)CC1` [Compound 41, (S)-1-(4-(7-(8-methylnaphthalen-1-yl)-2-(2-(pyrrolidin-1-ylmethyl)pyrrolidine-1-carbonyl)-5,6,7,8-tetrahydro-1,7-naphthyridin-4-yl)piperazin-1-yl)prop-2-en-1-one], the IC50 amounted to 9590 nM.

Consider `C=CC(=O)N1CCN(c2cc(C(=O)NCCN(C)C)nc3c2CCN(c2cccc4ccccc24)C3)CC1` [Compound 2, 4-(4-acryloylpiperazin-1-yl)-N-(2-(dimethylamino)ethyl)-7-(naphthalen-1-yl)-5,6,7,8-tetrahydro-1,7-naphthyridine-2-carboxamide], for which the IC50 was 3150 nM.
